Holding throughout (type): cell-based
In assay [1] the test system is HIV-1 CRF07_BC pseudoviruses. Particulars: mean over CRF07_BC pseudoviruses of Table 2; TZM-bl. An excerpt: (§1) A panel of plasmids encoding HIV-1 Envs were obtained through the AIDS Research and Reference Reagent Program (ARRRP), Division of AIDS, NIAID, NIH, including subtype A Env clones pSVIII-92RW020.5 and 92UG037.8 from Dr. B.H. Hahn; subtype B Env clones SC422661.8, TRO.11 and AC10.0.29 from Drs. D. Montefiori, F. Gao and M. Li, pRHPA4259.7 and pREJO4541.67 from Drs. B.H. Hahn and J.F. Salazar-Gonzalez, and pCAAN5342.A2 from Drs. B.H. Hahn and D.L. Kothe; subtype C Env clones Du172.17 and Du422.1 from Drs. D. Montefiori, F. Gao, S. Abdool Karim and G. Ramjee, CAP45.2.00.G3 from Drs. L. Morris, K. Mlisana and D. Montefiori, ZM197M.PB7 from Drs. B.H. Hahn, Y. Li and J.F. Salazar-Gonzalez, ZM109F.PB4 from Drs. E. Hunter and C. Derdeyn. Six CRF07_BC Env clones (CH064.20, CH070.1, CH091.9, CH110.2, CH119.10 and CH120.6) were generous gifts by Dr. Y. Shao in the Chinese Center for Disease Control and Prevention, Beijing, China. A panel of Env clones derived from subtype B′ (B01, B02, B04, and 43-22), CRF01_AE (SHX335.24, YN192.31, AE01, AE03, GX2010.36, GX11.13, GX2010.36H, BJ5.11), and CRF07_BC (BC02, BC03, BC05, BC07, BC14, SC19-15, BJ22-5, YN148R-9, XJ50-6, HB5-3) were kindly provided by Dr. Y. Wang from the National Institute for the Control of Pharmaceutical and Biological Products, Beijing, China.

The subject of assay [2] is HIV-1 subtype C pseudoviruses. The following applies: mean over subtype C pseudoviruses of Table 1; TZM-bl.
Excerpt: as §1

The test system of assay [3] is HIV-1 subtype A pseudoviruses. The following applies: mean over subtype A pseudoviruses of Table 1; TZM-bl.
Excerpt: as §1

In assay [4] the test system is HIV-1 subtype B′ pseudoviruses. Particulars: mean over subtype B′ pseudoviruses of Table 2; TZM-bl.
Excerpt: as §1

Assay [5] concerns HIV-1 subtype B pseudoviruses.
Excerpt: as §1

In assay [6] the test system is HIV-1 CRF01_AE pseudoviruses. Particulars: mean over CRF01_AE pseudoviruses of Table 2; TZM-bl.
Excerpt: as §1

The term IC50 denotes the concentration at which inhibition is half-maximal. Lower therefore signals inhibition by little substance.

On to enfuvirtide, for which the IC50 amounted to 47.2 nM in assay [1]; 55.2 nM in assay [2]; 14.5 nM in assay [3]; 19.5 nM in assay [4]; 214 nM in assay [5] (mean over subtype B pseudoviruses of Table 1, TZM-bl); 68.1 nM in assay [6]. Further, the “sensitivity of some subtype B Envs (in words)” value in assay [5] (some Envs derived from subtype B, compared to other HIV-1 isolates) is given as “much less sensitive”.
